We go through two molecules from patent publication US20260215426A1, “HERBICIDAL COMPOSITIONS” (SYNGENTA CROP PROTECTION AG, priority 2022, published 2026).

What all share (assay type): in vivo
Experiment [1] has as its system Amaranthus palmeri (AMAPA). Kind of experiment: Post-emergence glasshouse efficacy against Amaranthus palmeri. Conditions: 7-8 true leaves, 14 days. The text has this:
(§1) When active ingredients are combined, the activity to be expected (E) for any given active ingredient combination obeys the so-called Colby Formula and can be calculated as follows (Colby, S. R., Calculating synergistic and antagonistic responses of herbicide combination, Weeds, Vol. 15, pages 20-22; 1967): • ppm=milligrams of active ingredient (a.i.) per liter • X=% action by first active ingredient using p ppm of the active ingredient • Y=% action by second active ingredient sing q ppm of the active ingredient.
(§2) According to Colby, the expected action of active ingredients A+B using p+q ppm of active ingredient is represented by the following formula: […]
(§3) If the action actually observed (O) is greater than the expected action E then the action of the combination is super-additive, i.e. there is a synergistic effect. In mathematical terms, synergism corresponds to a positive value for the difference of (O-E). In the case of purely complementary addition of activities (expected activity), said difference (O-E) is zero. A negative value of said difference (O-E) signals a loss of activity compared to the expected activity.
(§4) Seeds of a variety of test species are sown in standard soil in pots (Echinochloa crus-galli (ECHCG), Conyza canadensis (ERICA), Amaranthus palmeri (AMAPA), Alopecurus myosuroides (ALOMY), Lolium perenne (LOLPE), and Setaria faberi (SETFA)), and cultivated under controlled conditions in a glasshouse (at 24/16° C., day/night; 14 hours light; 65% humidity), the plants are sprayed with an aqueous spray solution derived from the dissolution of the test compound or composition in acetone and IF50 (11.12% Emulsogen EL360 TM+44.44% N-methylpyrrolidone+44.44% Dowanol DPM glycol ether) which was then diluted to the required concentration using 0.2% Genapol XO80 (CAS No. 9043-30-5) in water as the diluent. Test compounds or compositions are applied at the rates stated. The test plants are then grown in a glasshouse under controlled conditions in a glasshouse (at 24/16° C., day/night; 14 hours light; 65% humidity) and watered twice daily. After 14 days, the test is evaluated for the percentage damage caused to the plant (100=total damage to plant; 0=no damage to plant), and the result are shown below in table B1 to B6.

The test system of another experiment is Setaria faberi (SETFA). As to the kind of experiment: Post-emergence glasshouse efficacy against Setaria faberi. Conditions: 14 days, alone 3.75 g/Ha.
Text: as §1, §2
If the action actually observed (O) is greater than the expected action E then the action of the combination is super-additive, i.e. there is a synergistic effect. In mathematical terms, synergism corresponds to a positive value for the difference of (O-E). In the case of purely complementary addition of activities (expected activity), said difference (O-E) is zero. A negative value of said difference (O-E) signals a loss of activity compared to the expected activity. […]

Experiment [2] has as its system Conyza canadensis (ERICA). Kind of experiment: Post-emergence glasshouse efficacy against Conyza canadensis. Particulars: 8 cm rosette, 14 days.
Text: as §1, §2, §3, §4

Experiment [3] concerns Echinochloa crus-galli (ECHCG). As to the kind of experiment: Post-emergence glasshouse efficacy against Echinochloa crus-galli. Conditions: 4 true leaves, 14 days.
Text: as §1, §2, §3, §4

Another experiment concerns Lolium perenne (LOLPE). Kind of experiment: Post-emergence glasshouse efficacy against Lolium perenne. Conditions: 14 days.
Text: as §1, §2, §3, §4

Experiment [4] deals with Alopecurus myosuroides (ALOMY). Kind of experiment: Post-emergence glasshouse efficacy against Alopecurus myosuroides. Particulars: 14 days.
Text: as §1, §2, §3, §4

In the case of `CCOC(=O)C1(C)CC(c2cc(-n3c(=O)cc(C(F)(F)F)n(C)c3=O)c(F)cc2Cl)=NO1` (stereo not drawn) [Compound (Ia)], the inhibition at 0.9375 g/ha in experiment [1] (Amaranthus palmeri, 336 h, alone 0.9375 g/Ha, read-out: Observed Activity (%)) is 0%. Also, the inhibition at 1.875 g/ha stood at 0% in experiment [1] (Amaranthus palmeri, 336 h, alone 1.875 g/Ha, read-out: Observed Activity (%)); 20% in experiment [2] (Erigeron canadensis, 336 h, alone 1.875 g/Ha, read-out: Observed Activity (%)); 6.7% in experiment [3] (Echinochloa crus-galli, 336 h, alone 1.875 g/Ha, read-out: Observed Activity (%)). Besides, the inhibition at 3.75 g/ha in experiment [1] (Amaranthus palmeri, 336 h, alone 3.75 g/Ha, read-out: Observed Activity (%)) was 36.7%; in the experiment with Setaria faberi (SETFA) (Setaria faberi, 336 h, read-out: Observed Activity (%)), 67.5%; in experiment [2] (Erigeron canadensis, 336 h, alone 3.75 g/Ha, read-out: Observed Activity (%)), 21.7%; in experiment [3] (Echinochloa crus-galli, 336 h, alone 3.75 g/Ha, read-out: Observed Activity (%)), 29.3%; in the experiment with Lolium perenne (LOLPE) (Lolium perenne, 336 h, alone 3.75 g/Ha, read-out: Observed Activity (%)) it was 12.5%. For the same molecule, the inhibition at 7.5 g/ha in experiment [2] (Erigeron canadensis, 336 h, alone 7.5 g/Ha, read-out: Observed Activity (%)) came out at 48.3%; in experiment [3] (Echinochloa crus-galli, 336 h, alone 7.5 g/Ha, read-out: Observed Activity (%)) it was 73.3%; with Lolium perenne (LOLPE) (Lolium perenne, 336 h, alone 7.5 g/Ha, read-out: Observed Activity (%)) it was 42.5%. The inhibition at 15 g/ha with Lolium perenne (LOLPE) (Lolium perenne, 336 h, alone 15.0 g/Ha, read-out: Observed Activity (%)) amounted to 50%. For the same molecule, the inhibition at 30 g/ha with Lolium perenne (LOLPE) (Lolium perenne, 336 h, alone 30.0 g/Ha, read-out: Observed Activity (%)) stood at 93.5%; in experiment [4] (Alopecurus myosuroides, 336 h, alone 30.0 g/Ha, read-out: Observed Activity (%)) it was 67.5%. In addition, the inhibition at 60 g/ha in experiment [4] (Alopecurus myosuroides, 336 h, alone 60.0 g/Ha, read-out: Observed Activity (%)) was 97.5%.
Turning to bicyclopyrone, the “Observed Activity (%)” value was determined as 0.0% in experiment [1] (alone 3.75 g/Ha); 30.0% in experiment [1] (alone 7.5 g/Ha); 45.0% in experiment [1] (alone 15.0 g/Ha); 18.3% in experiment [1] (alone 30.0 g/Ha); 22.5% in the experiment with Setaria faberi (SETFA); 65.0% in experiment [2] (alone 15.0 g/Ha). Further, the “Observed Activity (%)” value in experiment [2] (alone 30.0 g/Ha) turned out to be 71.7%; in experiment [2] (alone 60.0 g/Ha) it was 70.0%; in experiment [3] (alone 3.75 g/Ha), 21.7%; in experiment [3] (alone 7.5 g/Ha) it was 46.7%; in experiment [3] (alone 15.0 g/Ha) it was 56.7%; in experiment [3] (alone 30.0 g/Ha) it was 61.7%. The “Observed Activity (%)” value in experiment [3] (alone 60.0 g/Ha) came out at 63.3%; in the experiment on Lolium perenne (LOLPE) (alone 3.75 g/Ha), 0.0%; in the experiment on Lolium perenne (LOLPE) (alone 7.5 g/Ha) it was 10.0%; with Lolium perenne (LOLPE) (alone 15.0 g/Ha) it was 25.0%; with Lolium perenne (LOLPE) (alone 30.0 g/Ha) it was 47.5%; in experiment [4] (alone 7.5 g/Ha), 47.5%. In addition, the “Observed Activity (%)” value in experiment [4] (alone 15.0 g/Ha) and in experiment [4] (alone 30.0 g/Ha) was 60.0% in each case.
